The source of these data is US20240091210A1, “USE OF 5-[[4-[2-[5-ACETYLPYRIDIN-2-YL]ETHOXY]BENZYL]-1,3-THIAZOLIDINE-2,4-DIONE AND ITS SALTS” (Minoryx Therapeutics S.L., priority 2018, published 2024).

Each structure is given as a SMILES string. A value given as a limit tells only on which side of the number the result lay.

What is called IC50 is the point on the concentration scale where inhibition reaches its midpoint.

Data set [1] addresses mitochondrial pyruvate carrier (MPC) (Homo sapiens (Human), UniProt O95563+Q9Y5U8). Description: BRET assay of MPC inhibitory activity in HEK cells. In kind it is cell-based. Particulars: HEK cells expressing MPC2-Rluc8 and MPC1-Venus; read-out: IC50 (MPC inhibition, BRET). As for the experimental part: The MPC is a heterodimer composed of two subunits, MPC1 and MPC2. MPC1 and MPC2 interact to form an active carrier. In the assay, MPC2 was fused to Rluc8 (Donor) and MPC1 to Venus (Acceptor). These chimeric proteins were stably expressed in HEK cells. BRET activity was measured following addition of coelenterazine in the culture medium. Coelenterazine enters into cells and in contact with luciferase Rluc8 emits light, which activates the emission of fluorescence by the Acceptor, provided the distance between the Donor and Acceptor is <[…]. If the distance between Donor and Acceptor is >[…], no BRET activity is measured. The level of BRET activity reflects a change in the conformation of the MPC: it is high when the carrier is in a closed conformation, low when the carrier is at rest and intermediary when it transports pyruvate. In this case, the BRET activity is the mean value between the BRET value when the carrier is at rest (Maximal distance between Donor and Acceptor) and the BRET value when it is closed (Shortest distance between Donor and Acceptor)
A wide range of concentrations of each of the tested compounds was used from 1 nM to 100 μM.
(Bioluminescence resonance energy transfer reports proximity on the nanometre scale.)

A short description of data set [2]: Plasma pharmacokinetics in mice after single oral 50 mg/kg M-III. In kind it is in vivo. Particulars: male C57BL/6 mice. As for the experimental part:
To the plasma pharmacokinetics of 5-[[4-[2-[5-acetylpyridin-2-yl]ethoxy]phenyl]methyl]-1,3-thiazolidine-2,4-dione (M-III) and 5-[[4-[2-[5-(1-hydroxyethyl)pyridin-2-yl]ethoxy]phenyl]methyl]-1,3-thiazolidine-2,4-dione (M-IV) were determined in male C57BL/6 mice following a single oral (50 mg/kg) dose administration of M-III.
Nine animals were administered orally with suspension formulation of M-III in 0.1% Tween 80 and 99.9% NaCMC in water (0.5% w/v) at 50 mg/kg dose. The dosing volume administered was 10 mL/kg. The blood samples were collected from set of three mice at each time point in labeled micro centrifuge tube containing K2EDTA solution as anticoagulant at Pre-dose, 0.25, 0.5, 1, 2, 4, 8, 12 and 24 hr. Plasma samples were separated by centrifugation of whole blood and stored below −70±10° C. until bioanalysis. All samples were processed for analysis by protein precipitation using acetonitrile and analyzed with fit-for-purpose LC-MS/MS method (LLOQ=2.46 ng/mL for M-III and 2.49 ng/mL for M-IV). Pharmacokinetic parameters were calculated using the non-compartmental analysis tool of Phoenix WinNonlin® (Version 6.3).

Data set [3] can be described thus: Plasma pharmacokinetics in mice after single oral 4.5 mg/kg M-III or MIN-102. In kind it is in vivo, male C57BL/6 mice. As for the experimental part:
The plasma pharmacokinetics of 5-[[4-[2-[5-acetylpyridin-2-yl]ethoxy]phenyl]methyl]-1,3-thiazolidine-2,4-dione (M-III) and 5-[[4-[2-[5-(1-hydroxyethyl)pyridin-2-yl]ethoxy]phenyl]methyl]-1,3-thiazolidine-2,4-dione (M-IV) were determined in male C57BL/6 mice following a single oral (4.5 mg/kg) dose of either M-III or MIN-102 (5-[[4-[2-[5-(1-hydroxyethyl)pyridin-2-yl]ethoxy]phenyl]methyl]-1,3-thiazolidine-2,4-dione hydrochloride).
Animals were administered orally with a suspension formulation of either M-III or MIN-102 in 0.1% Tween 80 and 99.9% NaCMC in water (0.5% w/v) at 4.5 mg/kg dose. The blood samples were collected from a set of three mice at each time point in labeled micro centrifuge tubes containing K2EDTA solution as anticoagulant at Pre-dose, 0.25, 0.5, 1, 2, 4, 8, 12 and 24 hr. Plasma samples were separated by centrifugation of whole blood and stored below −70±10° C. until bioanalysis. All samples were processed for analysis by protein precipitation using acetonitrile and analyzed with fit-for-purpose LC-MS/MS method (LLOQ=2.46 ng/mL for M-III and 2.49 ng/mL for M-IV). Pharmacokinetic parameters were calculated using the non-compartmental analysis tool of Phoenix WinNonlin® (Version 6.3).

A short description of data set [4]: Plasma pharmacokinetics in rats after single oral 10 mg/kg M-III or MIN-102. In kind it is in vivo, male Sprague Dawley rats. As for the experimental part:
The plasma pharmacokinetics of 5-[[4-[2-[5-acetylpyridin-2-yl]ethoxy]phenyl]methyl]-1,3-thiazolidine-2,4-dione (M-III; M3) and 5-[[4-[2-[5-(1-hydroxyethyl)pyridin-2-yl]ethoxy]phenyl]methyl]-1,3-thiazolidine-2,4-dione (M-IV; M4) were determined in male Sprague Dawley following a single oral (10 mg/kg) dose administration of either M-III or MIN-102.
Six animals were dosed orally with a suspension formulation of either M-III or MIN-102 in 0.1% Tween 80 and 99.9% CMC (0.5% w/v solution in RO water) at 10 mg/kg.
The dosing volume administered was 10 mL/kg. Blood samples (approximately 60 μL) were collected from retro-orbital plexus of three rats at 0.08, 0.25, 0.5, 1, 2, 4, 8, 12 and 24 hr (IV) and at predose, 0.25, 0.5, 1, 2, 4, 8, 12 and 24 hr. Samples were collected into labeled micro-tubes, containing K2EDTA solution (20% K2EDTA solution) as an anticoagulant. Plasma was immediately harvested from the blood by centrifugation at 4000 rpm for 10 min at 4±2° C. and stored below −70° C. until bioanalysis.
Concentrations of M-III and M-IV in rat plasma samples were determined by fit-for-purpose LC-MS/MS method. Non-Compartmental-Analysis module in Phoenix WinNonlin® (Version 6.3) was used to assess the pharmacokinetic parameters. Peak plasma concentrations (Cax) and time for the peak plasma concentrations (Tmax) were the observed values. The areas under the concentration time curve (AUClast and AUCinf) were calculated by linear trapezoidal rule.

Data set [5] can be described thus: Plasma pharmacokinetics in dogs after single oral 3 mg/kg M3 or MIN-102. In kind it is in vivo, male Beagle dogs. How it is done:
The plasma pharmacokinetics of 5-[[4-[2-[5-acetylpyridin-2-yl]ethoxy]phenyl]methyl]-1,3-thiazolidine-2,4-dione (M-III; M3) and 5-[[4-[2-[5-(1-hydroxyethyl)pyridin-2-yl]ethoxy]phenyl]methyl]-1,3-thiazolidine-2,4-dione (M-IV; M4) were determined in male Beagle dogs following a single oral (3 mg/kg) dose administration of either M3 or MIN-102.
Six animals were dosed orally with a suspension formulation of either M-III or MIN-102 in 0.1% Tween 80 and 99.9% CMC (aqueous carboxymethylcellulose 0.5% w/v solution in RO water) at 3 mg/kg. Blood samples (0.5 ml) were collected from the saphenous or cephalic or jugular veins of dogs at predose, 0.5, 1, 2, 4, 6 and 24 hr. Samples were collected into labeled micro-tubes, containing K2EDTA solution (20% K2EDTA solution) as an anticoagulant. Plasma was immediately harvested from the blood by centrifugation at 4000 rpm for 10 min and stored below −70° C. until bioanalysis.
Concentrations of M3 and M-IV in dog plasma samples were determined by fit-for-purpose LC-MS/MS method. Non-Compartmental-Analysis module in Phoenix WinNonlin® (Version 6.3) was used to assess the pharmacokinetic parameters. Peak plasma concentrations (Cmax) and time for the peak plasma concentrations (Tmax) were the […] observed values. The areas under the concentration time curve (AUClast and AUCinf) were calculated by linear trapezoidal rule.

For data set [6] the following is noted: as described in WO 2015/150476 A1; cited from earlier work.

mitochondrial pyruvate carrier (MPC), sequence (Q9Y5U8 whole entry, the tested form may be a part): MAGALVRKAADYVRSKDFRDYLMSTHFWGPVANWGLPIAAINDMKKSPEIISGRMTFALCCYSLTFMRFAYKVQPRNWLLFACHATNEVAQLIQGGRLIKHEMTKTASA
mitochondrial pyruvate carrier (MPC), sequence (O95563 whole entry, the tested form may be a part): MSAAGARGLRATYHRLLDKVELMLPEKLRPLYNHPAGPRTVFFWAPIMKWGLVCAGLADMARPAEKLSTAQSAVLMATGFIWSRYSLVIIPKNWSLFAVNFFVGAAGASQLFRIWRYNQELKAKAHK

For `CN(CCOc1ccc(C[C@@H]2SC(=O)NC2=O)cc1)c1ccccn1` [Rosiglitazone], the IC50 in data set [1] came out at 2000 nM.
Same read-out and setting: next, `CCc1ccc(CCOc2ccc(CC3SC(=O)NC3=O)cc2)nc1` (stereo not shown) [Pioglitazone]: over 100000 nM.
Turning to `CC(O)c1ccc(CCOc2ccc(CC3SC(=O)NC3=O)cc2)nc1` (stereo not shown) [M-IV, 5-[[4-[2-[5-(1-hydroxyethyl)pyridin-2-yl]ethoxy]phenyl]methyl]-1,3-thiazolidine-2,4-dione], the “share of total exposure (AUC)” value is recorded as “about 75%” in data set [2]; about 75% in data set [3] (after single oral 4.5 mg/kg M-III, male mice); “about 62%” in data set [3] (after single oral 4.5 mg/kg MIN-102, male mice); about 48% in data set [4] (after single oral 10 mg/kg M-III, male rats); “about 58%” in data set [4] (after single oral 10 mg/kg MIN-102, male rats); about 84% in data set [5] (after single oral 3 mg/kg M3, male dogs). In addition, the “share of total exposure (AUC)” value in data set [5] (after single oral 3 mg/kg MIN-102, male dogs) is “about 92%”. Also, the blood-brain-barrier penetration result in data set [6] is reported as “penetrates the BBB”.
